The text below walks through data of ChEMBL document CHEMBL3120112, “Novel bronchodilatory quinazolines and quinoxalines: synthesis and biological evaluation” (Eur J Med Chem, 2014).

Data set [1] in a line: Acute toxicity in ip dosed ICR mouse. The format is organism-based. The following applies: in vivo.
Data set [2] is described as follows: Bronchodilatory activity in Wistar rat trachea assessed as inhibition of carbacol-induced contraction. The following applies: read-out: ED50 (the source's name). Format: functional.
The subject of data set [3] is Mus musculus. Kind of data set: Toxicity in ICR mouse assessed as change in body weight at 18 to 54 mg/kg, po qd for 7 days measured every day for 7 days. Format: organism-based. Also on record: dose 18-54 mg/kg, route oral. The following applies: in vivo, 168 h.
In data set [4] the test system is Mus musculus. Description: Toxicity in ICR mouse assessed as mortality at 18 to 54 mg/kg, po qd for 7 days measured every day for 7 days. The format is organism-based. Also on record: dose 18-54 mg/kg, route oral. The following applies: in vivo, 168 h.
The species named for data set [5] is Rattus norvegicus. The following applies: Wistar, Trachea.
The nature of data set [6]: Bronchodilatory activity in guinea pig trachea assessed as inhibition of contraction. The format is functional, tissue-based.
Data set [7] is filed under the species Rattus norvegicus. Description: Antagonist activity at rat trachea muscarinic acetylcholine receptor assessed as inhibition of carbachol-induced contraction preincubated for 10 mins followed by agonist challenge.
The species named for another data set is Cavia porcellus. Kind of data set: Agonist activity at guinea pig trachea beta adrenergic receptor assessed as relaxation effect in presence of propranolol.
Another data set relates to Trachea. Description: Potency index, ratio of theophylline ED50 to compound ED50 for bronchodilatory activity in Wistar rat trachea. Format: functional.
The subject of data set [8] is Mus musculus. Description: Toxicity in ICR mouse assessed as change in kidney weight at 18 mg/kg, po qd for 7 days measured every day for 7 days (0.248 +/- 0.026 g). The format is organism-based. The arrangement: dose 18 mg/kg, route oral. The following applies: in vivo, 168 h.
The subject of data set [9] is Mus musculus. Description: Toxicity in ICR mouse assessed as change in kidney weight at 36 mg/kg, po qd for 7 days measured every day for 7 days (0.248 +/- 0.026 g). Format: organism-based. The conditions noted are these: in vivo, 168 h. The arrangement: dose 36 mg/kg, route oral.
Data set [10] has as its system Mus musculus. Description: Toxicity in ICR mouse assessed as change in spleen weight at 18 mg/kg, po qd for 7 days measured every day for 7 days (0.143 +/- 0.033 g). Format: organism-based. Also on record: dose 18 mg/kg, route oral. The conditions noted are these: in vivo, 168 h.
For data set [11], the system named is Mus musculus. Kind of data set: Toxicity in ICR mouse assessed as change in testicle weight at 54 mg/kg, po qd for 7 days measured every day for 7 days (0.118 +/- 0.004 g). Format: organism-based. The arrangement: dose 54 mg/kg, route oral. The following applies: in vivo, 168 h.
Data set [12] concerns Mus musculus. Description: Toxicity in ICR mouse assessed as change in heart weight at 54 mg/kg, po qd for 7 days measured every day for 7 days (0.155 +/- 0.002 g). The format is organism-based. Also on record: dose 54 mg/kg, route oral. The following applies: in vivo, 168 h.
The subject of data set [13] is Mus musculus. Description: Toxicity in ICR mouse assessed as change in heart weight at 36 mg/kg, po qd for 7 days measured every day for 7 days (0.155 +/- 0.002 g). The format is organism-based. Also on record: dose 36 mg/kg, route oral. The conditions noted are these: in vivo, 168 h.
The subject of data set [14] is Mus musculus. Description: Toxicity in ICR mouse assessed as change in liver weight at 18 mg/kg, po qd for 7 days measured every day for 7 days (1.772 +/- 0.120 g). The conditions noted are these: in vivo, 168 h. Also on record: dose 18 mg/kg, route oral. The format is organism-based.
For data set [15], the system named is Mus musculus. Kind of data set: Toxicity in ICR mouse assessed as change in kidney weight at 54 mg/kg, po qd for 7 days measured every day for 7 days (0.248 +/- 0.026 g). Format: organism-based. Also on record: dose 54 mg/kg, route oral. The following applies: in vivo, 168 h.
The subject of data set [16] is Mus musculus. Description: Toxicity in ICR mouse assessed as change in spleen weight at 54 mg/kg, po qd for 7 days measured every day for 7 days (0.143 +/- 0.033 g). Format: organism-based. The following applies: in vivo, 168 h. Also on record: dose 54 mg/kg, route oral.
The subject of data set [17] is Mus musculus. Kind of data set: Toxicity in ICR mouse assessed as change in testicle weight at 18 mg/kg, po qd for 7 days measured every day for 7 days (0.118 +/- 0.004 g). Format: organism-based. Also on record: dose 18 mg/kg, route oral. The following applies: in vivo, 168 h.
Data set [18] relates to Mus musculus. Kind of data set: Toxicity in ICR mouse assessed as change in heart weight at 18 mg/kg, po qd for 7 days measured every day for 7 days (0.155 +/- 0.002 g). The conditions noted are these: in vivo, 168 h. Also on record: dose 18 mg/kg, route oral. Format: organism-based.
Data set [19] relates to Mus musculus. Kind of data set: Toxicity in ICR mouse assessed as change in liver weight at 54 mg/kg, po qd for 7 days measured every day for 7 days (1.772 +/- 0.120 g). Format: organism-based. Also on record: dose 54 mg/kg, route oral. The following applies: in vivo, 168 h.
Data set [20] has as its system Mus musculus. Description: Toxicity in ICR mouse assessed as change in spleen weight at 36 mg/kg, po qd for 7 days measured every day for 7 days (0.143 +/- 0.033 g). Format: organism-based. The arrangement: dose 36 mg/kg, route oral. The conditions noted are these: in vivo, 168 h.
Data set [21] concerns Mus musculus. Kind of data set: Toxicity in ICR mouse assessed as change in testicle weight at 36 mg/kg, po qd for 7 days measured every day for 7 days (0.118 +/- 0.004 g). Format: organism-based. The arrangement: dose 36 mg/kg, route oral. The following applies: in vivo, 168 h.
Data set [22] relates to Mus musculus. Description: Toxicity in ICR mouse assessed as change in liver weight at 36 mg/kg, po qd for 7 days measured every day for 7 days (1.772 +/- 0.120 g). The format is organism-based. The arrangement: dose 36 mg/kg, route oral. The following applies: in vivo, 168 h.

Molecules are shown by their SMILES. The source made the active and inactive calls. No cut-off for these calls is given here.

As usually defined, the LD50 is the dose at which mortality reaches 50%. For the compound `Cl.O=c1c2ccccc2ncn1CCCN1CCCCC1`, the LD50 in data set [1] was determined as 162 mg/kg.

Turning to `c1ccc2c(NCCN3CCCCC3)ncnc2c1`, the EC50 in data set [2] amounted to 191 µM.

Consider `O=c1[nH]cnc2ccccc12` [QUINAZOLINONE], for which, in [2], the EC50 worked out at 810 µM.

For the compound `CN(C)CCn1cnc2ccccc2c1=O`, in [2], the EC50 stood at 440 µM.

On to `O=c1ccn(CCCN2CCCCC2)cc1`, for which, in [2], the EC50 was 4230 µM.

`c1ccc2c(SCCCN3CCCCC3)ncnc2c1` [listing 1 of 2 here]: the Activity entry with Mus musculus [3] and in the data set with Mus musculus [4] was “Non-toxic” each time. The EC50 in data set [2] worked out at 3.42 µM.

In the case of `O=C(O)Cn1cnc2ccccc2c1=O`, the ED50 result in the data set filed under Rattus norvegicus [5] was “inactive”.

Turning to `COc1cc2nc3n(c(=O)c2cc1OC)CCCCC3`, the EC50 in data set [6] is 73 µM.

For `CN(C)CCSc1ncnc2ccccc12`, in data set [2], the EC50 amounted to 65.3 µM.

In the case of `c1ccc2c(SCCCN3CCCCC3)ncnc2c1` [listing 2 of 2 here], the outcome in the data set listed under Rattus norvegicus [7] and in the data set filed under Cavia porcellus was Active.

As to `CN1CCCC1CCNc1ncnc2ccccc12` (centres undefined), the EC50 in data set [2] stood at 173 µM.

Consider `c1ccc2c(NCCN3CCOCC3)ncnc2c1`, for which, in data set [2], the EC50 turned out to be 258 µM.

Regarding `O=c1ccncn1CCCN1CCCCC1`, the EC50 in data set [2] is 1120 µM.

As for `CN1CCCC1CCSc1ncnc2ccccc12` (centres undefined), the EC50 in data set [2] was 76.6 µM.

In the case of `O=c1c2ccccc2ncn1CCC[N+]1([O-])CCCCC1`, the EC50 in [2] came to 601 µM.

On to `O=c1c2ccccc2nc2n1CC[C@@H]2O`, for which the EC50 in data set [2] was 2860 µM.

Take `O=c1cnc2ccccc2n1CCCN1CCCCC1`: the EC50 in data set [2] is 43 µM.

Turning to `O=c1c2ccccc2ncn1CCCN1CCCCC1`, in the data set with Trachea, the “Ratio ED50” value was 100. For the same compound, the EC50 in data set [2] was 28.3 µM.

As for `O=c1ccn(CCCN2CCCCC2)c2ccccc12`, the EC50 in data set [2] was found to be 946 µM.

Consider `CN1CCCC1CCn1cnc2ccccc2c1=O` (centres undefined), for which the EC50 in [2] turned out to be 104 µM.

Turning to `O=c1c2ccccc2ncn1CCN1CCCCC1`, the EC50 in data set [2] was determined as 178 µM.

`Cl.c1ccc2nc(SCCCN3CCCCC3)cnc2c1` registered an LD50 in data set [1] of 104 mg/kg. In data set [2], the EC50 was 3.26 µM. The result in the data set listed under Rattus norvegicus [7] and in the data set filed under Cavia porcellus was Active.

Regarding `CN(C)CCOc1ncnc2ccccc12`, the EC50 in [2] was found to be 162 µM.

As for `c1ccc2c(OCCCN3CCCCC3)ncnc2c1`, in data set [2], the EC50 worked out at 132 µM.

`c1ccc2c(SCCCN3CCCCC3)ccnc2c1`: the EC50 in data set [2] was found to be 58.7 µM.

For the compound `Cn1cnc2ccccc2c1=O`, the EC50 in data set [2] amounted to 747 µM.

For the compound `c1ccc2c(OCCN3CCCCC3)ncnc2c1`, the EC50 in data set [2] turned out to be 301 µM.

On to `O=c1c2ccccc2[n+]([O-])cn1CCCN1CCCCC1`, for which the EC50 in data set [2] amounted to 45.3 µM.

`O=c1c2ccccc2ncn1CCN1CCCC1`: in data set [2], the EC50 is 562 µM.

As for `Cl.c1ccc2c(SCCCN3CCCCC3)ncnc2c1`, the Activity with Mus musculus [8] came out at 0.24 g; with Mus musculus [9], 0.238 g; in the data set on Mus musculus [10] it was 0.134 g; with Mus musculus [11], 0.115 g; with Mus musculus [12] it was 0.144 g; in the data set on Mus musculus [13], 0.154 g. The Activity was 1.762 g with Mus musculus [14]; 0.242 g in the data set on Mus musculus [15]; 0.131 g in the data set on Mus musculus [16]; 0.122 g with Mus musculus [17]; 0.146 g in the data set on Mus musculus [18]; 1.64 g in the data set on Mus musculus [19]. The Activity with Mus musculus [20] amounted to 0.147 g; with Mus musculus [21], 0.116 g; in the data set with Mus musculus [22], 1.679 g. The LD50 in data set [1] was 89.1 mg/kg.

Take `O=c1c2ccccc2ncn1CCN1CCOCC1`: in [2], the EC50 was 1900 µM.

`Cn1c(=O)c2nc[nH]c2n(C)c1=O` [THEOPHYLLINE]: the EC50 in [2] is 2090 µM.
